# Results published in EP4624465A1, “COMPOUND SERVING AS DDR1 KINASE INHIBITOR, AND MEDICINE” (Nippon Shinyaku Co., Ltd., priority 2022, dated 2024).
# Counter-ions that a name gives are not always drawn.
# Target: DDR1 kinase (Homo sapiens, UniProt Q08345)
# Experiment: Evaluation of DDR1 kinase inhibition (LANCE Ultra TR-FRET kinase assay)
# Format: biochemical
# Parameters: purchased Carna Biosciences 08-113
# Conditions: DDR1 protein 0.5 nM, LANCE Ultra ULight-poly GAT substrate, 2 hours at room temperature, duplicate; read-out: DDR-1 IC50
# DDR1 kinase, sequence (Q08345 19-876 isoform Q08345-2 limits assumed): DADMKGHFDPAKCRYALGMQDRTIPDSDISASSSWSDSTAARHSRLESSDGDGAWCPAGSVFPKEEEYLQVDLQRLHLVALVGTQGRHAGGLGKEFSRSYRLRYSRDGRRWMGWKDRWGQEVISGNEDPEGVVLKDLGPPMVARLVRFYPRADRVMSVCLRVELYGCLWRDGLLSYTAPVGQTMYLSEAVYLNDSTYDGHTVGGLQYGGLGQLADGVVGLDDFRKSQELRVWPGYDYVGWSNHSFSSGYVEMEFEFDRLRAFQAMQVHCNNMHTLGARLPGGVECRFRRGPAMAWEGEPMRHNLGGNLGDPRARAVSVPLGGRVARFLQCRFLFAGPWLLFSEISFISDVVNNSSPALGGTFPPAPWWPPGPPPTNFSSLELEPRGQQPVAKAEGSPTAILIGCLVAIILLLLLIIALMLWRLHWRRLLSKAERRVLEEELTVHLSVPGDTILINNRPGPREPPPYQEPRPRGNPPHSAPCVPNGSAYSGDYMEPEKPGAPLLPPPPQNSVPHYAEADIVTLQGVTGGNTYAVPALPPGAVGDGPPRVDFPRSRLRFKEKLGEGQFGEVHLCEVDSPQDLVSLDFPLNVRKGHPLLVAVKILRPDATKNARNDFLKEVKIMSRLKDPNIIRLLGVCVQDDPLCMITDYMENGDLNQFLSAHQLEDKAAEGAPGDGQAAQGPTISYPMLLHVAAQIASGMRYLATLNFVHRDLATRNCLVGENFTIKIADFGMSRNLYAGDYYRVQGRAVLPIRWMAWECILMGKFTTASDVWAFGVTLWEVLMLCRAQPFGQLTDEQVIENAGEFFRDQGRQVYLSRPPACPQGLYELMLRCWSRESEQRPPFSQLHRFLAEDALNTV
row,IC50 [µM],SMILES
1,0.06,"Nc1cc(C(=O)N2CC(c3nn(CC(=O)NCCOC(F)(F)F)c4ccccc34)C2)ccn1 [Compound E-227, 2-{3-[1-(2-aminopyridine-4-carbonyl)azetidin-3-yl)-1H-indazol-1-yl}-N-[2-(trifluoromethoxy)ethyl]acetamide]"
2,0.014,"Cc1ccc2c(c1)c(C1CN(C(=O)c3ccnc(N)n3)C1)nn2CC(=O)N(C)CC(F)(F)F [Compound E-288, 2-{3-[1-(2-aminopyrimidine-4-carbonyl)azetidin-3-yl]-5-methyl-1H-indazol-1-yl}-N-methyl-N-(2,2,2-trifluoroethyl)acetamide]"
3,0.011,"Nc1cc(C(=O)N2CC(O)(c3nn(CC(=O)N4CCC[C@H]4C(F)(F)F)c4ccccc34)C2)c(F)cn1 [Compound E-281, 2-{3-[1-(2-amino-5-fluoropyridine-4-carbonyl)-3-hydroxyazetidin-3-yl]-1H-indazol-1-yl}-1-[(28)-2-(trifluoromethyl)pyrrolidin-1-yl]ethan-1-one]"
4,0.0011,"Nc1cc(C(=O)N2CC(c3nn(CC(=O)N4CCC[C@H]4C(F)(F)F)c4ccc(F)cc34)C2)ccn1 [Compound E-202, 2-{3-[1-(2-aminopyridine-4-carbonyl)azetidin-3-yl]-5-fluoro-1H-indazol-1-yl}-1-[(28)-2-(trifluoromethyl)pyrrolidin-1-yl]ethan-1-one]"
5,0.003,"Nc1nccc(C(=O)N2CC(c3nn(CC(=O)N4CCO[C@@H](C(F)(F)F)C4)c4cc(F)cc(F)c34)C2)c1F [Compound E-184, 2-{3-[1-(2-amino-3-fluoropyridine-4-carbonyl)azetidin-3-yl]-4,6-difluoro-1H-indazol-1-yl}-1-[(2R)-2-(trifluoromethyl)morpholin-4-yl]ethan-1-one p-toluenesulfonate]"
6,0.03,"CO[C@@H]1CCN(C(=O)Cn2nc(C3CN(C(=O)c4cc(N)ncc4F)C3)c3ccccc32)C1 [Compound E-231, 2-{3-[1-(2-amino-5-fluoropyridine-4-carbonyl)azetidin-3-yl]-1H-indazol-1-yl}-1-1(3R)-3-methoxypyrrolidin-1-yllethan-1-one]"
7,0.0013,"Nc1cc(C(=O)N2CC(F)(c3nn(CC(=O)N4CCC[C@H]4C(F)(F)F)c4ccccc34)C2)c(F)cn1 [Compound E-285, 2-(3-[1-(2-amino-5-fluoropyridine-4-carbonyl)-3-fluoroazetidin-3-yl]-1H-indazol-1-yl}-1-[(2S)-2-(trifluoromethyl)pyrrolidin-1-yl]ethan-1-one]"
8,0.0075,"CC1(C)COCCN1C(=O)Cn1nc(C2CN(C(=O)c3ccnc(N)c3F)C2)c2ccccc21 [Compound E-190, 2-{3-[1-(2-amino-3-fluoropyridine-4-carbonyl)azetidin-3-yl]-1H-indazol-1-yl}-1-(3,3-dimethylmorpholin-4-yl)ethan-1-one]"
9,0.032,"Nc1cc(C(=O)N2CC(c3nn(Cc4noc(C(F)(F)F)n4)c4ccccc34)C2)ccn1 [Compound E-217, 4-[3-(1-{[5-(trifluoromethyl)-1,2.4-oxadiazol-3-yl]methyl}-1 H-indazol-3-yl)azetidine-1-carbonyl]pyridin-2-amine]"
10,0.0062,"CC(C)N(C(=O)Cn1nc(C2CN(C(=O)c3cc(N)ncc3F)C2)c2ccccc21)C(C)C [Compound E-267, 2-{3-[1-(2-amino-5-fluoropyridine-4-carbonyl)azetidin-3-yl]-1H-indazol-1-yl}-N,N-bis(propan-2-yl)acetamide]"
11,0.0078,"CN(CC(F)(F)F)C(=O)Cn1nc(C2CN(C(=O)c3ccnc(N)n3)C2)c2c(Cl)c(F)ccc21 [Compound E-287, 2-{3-(1-(2-aminopyrimidine-4-carbonyl)azetidin-3-yl]-4-chloro-5-fluoro-1H-indazol-1-yl}-N-methyl-N-(2,2,2-trifluoroethyl)acetamide]"
12,0.0021,"CC1(C)COCCN1C(=O)Cn1nc(C2CN(C(=O)c3cc(N)ncc3F)C2)c2c(F)cc(F)cc21 [Compound E-177, 2-{3-[1-(2-amino-5-fluoropyridine-4-carbonyl)azetidin-3-yl)-4,6-difluoro-1H-indazol-1-yl}-1-(3,3-dimethylmorpholin-4-yl)ethan-1-one]"
13,0.0035,"Nc1cc(C(=O)N2CC(c3nn(CC(=O)N4CCC[C@H]4C(F)(F)F)c4ccccc34)C2)c(Cl)cn1 [Compound E-210, 2-{3-[1-(2-amino-5-chloropyridine-4-carbonyl)azetidin-3-yl]-1H-indazol-1-yl]-1-[(2S)-2-(trifluoromethyl)pyrrolidin-1-yl]ethan-1-one]"
14,0.16,"CC1(C)CCc2c(c(C3CN(C(=O)c4ccnc(N)n4)C3)nn2CC(=O)N2CCC[C@H]2C(F)(F)F)C1 [Compound E-295, 2-{3-[1-(2-aminopyrimidine-4-carbonyl)azetidin-3-yl]-5,5-dimethyl-4,5,6,7-tetrahydro-1H-indazol-1-yl}-1-[(2S)-2-(trifluoromethyl)pyrrolidin-1-yl]ethan-1-one]"

# Second part, the molecule before the results:
row,SMILES,IC50 [µM]
1,"Nc1cc(C(=O)N2CC(c3nn(CC(=O)N4CCC[C@@H]4CO)c4cc(F)cc(F)c34)C2)ccn1 [Compound E-36, 2-{3-[1-(2-aminopyridine-4-carbonyl)azetidin-3-yl]-4,6-difluoro-1H-indazol-1-yl}-1-[(2R)-2-(hydroxymethyl)pyrrolidin-1-yl]ethan-1-one]",0.27
2,O=C(c1ccnc2[nH]ncc12)N1CC(c2nn(CC(=O)N3CCC[C@H]3C(F)(F)F)c3cc(F)cc(F)c23)C1 [Compound E-17],0.0003
3,"Nc1cc(C(=O)N2CC(c3nn(Cc4ccccc4C(F)(F)F)c4cccc(F)c34)C2)ccn1 [Compound E-114, 4-[3-(4-fluoro-1-{[2-(trifluoromethyl)phenyllmethyl}-1H-indazol-3-yl)azetidine-1-carbonyl]pyridin-2-amine hydrochloride]",0.056
4,Nc1cc(C(=O)N2CC(c3nn(CC#CC4CC4)c4cc(F)cc(F)c34)C2)ccn1 [Compound E-156],0.012
5,"Nc1cc(C(=O)N2CC(c3nn(CC4Cc5ccccc5C4)c4cc(F)cc(F)c34)C2)ccn1 [Compound E-171, 4-(3-{1-[(2,3-dihydro-1H-inden-2-yl)methyl]-4,6-difluoro-1H-indazol-3-yl}azetidine-1-carbonyl)pyridin-2-amine]",0.034
6,Nc1cc(C(=O)N2CC(c3nn(Cc4noc(C5(C(F)(F)F)CC5)n4)c4cccc(F)c34)C2)ccn1 [Compound E-147],0.0003
7,"Cc1nc(N)sc1C(=O)N1CC(c2nn(CC(=O)N3CCOCC3(C)C)c3ccccc23)C1 [Compound E-7, 2-{3-[1-(2-amino-4-methyl-1,3-thiazole-5-carbonyl)azetidin-3-yl]-1H-indazol-1-yl}-1-(3,3-dimethylmorpholin-4-yl)ethan-1-one]",0.015
8,"Cc1[nH]ncc1C(=O)N1CC(c2nn(CC(=O)N3CCC[C@H]3C(F)(F)F)c3cc(F)cc(F)c23)C1 [Compound E-165, 2-{4,6-difluoro-3-[1-(5-methyl-1H-pyrazole-4-carbonyl)azetidin-3-yl]-1H-indazol-1-yl}-1-[(28)-2-(trifluoromethyl)pyrrolidin-1-yl]ethan-1-one]",0.029
9,Nc1cc(C(=O)N2CC(c3nn(Cc4nc(-c5ccncc5F)no4)c4cncc(F)c34)C2)ccn1 [Compound E-170],0.22
10,"Nc1cc(C(=O)N2CC(c3nn(CC(=O)N4CCC[C@H]4COC(F)(F)F)c4cc(F)cc(F)c34)C2)c(F)cn1 [Compound E-175, 2-{3-[1-(2-amino-5-fluoropyridine-4-carbonyl)azetidin-3-yl]-4,6-difluoro-1H-indazol-1-yl}-1-[(2S)-2-[(trifluoromethoxy)methyl]pyrrolidin-1-yl]ethan-1-one]",0.0005
11,"O=C(c1cn[nH]c1C(F)(F)F)N1CC(c2nn(CC(=O)N3CCC[C@H]3C(F)(F)F)c3cc(F)cc(F)c23)C1 [Compound E-166, 2-(4,6-difluoro-3-{1-[5-(trifluoromethyl)-1H-pyrazole-4-carbonyl]azetidin-3-yl}-1H-indazol-1-yl)-1-[(2S)-2-(trifluoromethyl)pyrrolidin-1-yl]ethan-1-one]",0.15
12,"O=C(C1CCOCC1)N1CC(c2nn(CC(=O)N3CCC[C@H]3C(F)(F)F)c3cc(F)cc(F)c23)C1 [Compound E-162, 2-{4,6-difluoro-3-[1-(oxane-4-carbonyl)azetidin-3-yl]-1H-indazol-1-yl}-1-[(2S)-2-(trifluoromethyl)pyrrolidin-1-yl]ethan-1-one]",0.32
13,"Cc1nccc2c1c(C1CN(C(=O)c3ccnc(NC4CC4)c3)C1)nn2CC(=O)N1CCC[C@H]1C(F)(F)F [Compound E-93, 2-(3-{1-[2-(cyclopropylamino)pyridine-4-carbonyl]azetidin-3-yl}-4-methyl-1H-pyrazolo[4,3-c]pyridin-1-yl)-1-[(2S)-2-(trifluoromethyl)pyrrolidin-1-yl]ethan-1-one]",0.11
14,"Nc1cc(C(=O)N2CC(c3nn(Cc4noc(-c5cccc(C(F)(F)F)c5)n4)c4cccc(F)c34)C2)ccn1 [Compound E-117, 4-{3-[4-fluoro-1-({5-[3-(trifluoromethyl)phenyl])-1,2,4-oxadiazol-3-ylimethyl)-1H-indazol-3-yl]azetidine-1-carbonyl}pyridin-2-amine]",0.056
15,"Nc1cc(C(=O)N2CC(c3nn(CC(=O)N4CCC[C@H]4COC(F)(F)F)c4cncc(F)c34)C2)c(F)cn1 [Compound E-58, 2-{3-[1-(2-amino-5-fluoropyridine-4-carbonyl)azetidin-3-yl]-4-fluoro-1H-pyrazolo(3,4-c]pyridin-1-yl}-1-[(2S)-2-[(trifluoromethoxy)methyl]pyrrolidin-1-yl]ethan-1-one di-p-toluenesulfonate]",0.0044
16,"Nc1cc(C(=O)N2CCC(c3nn(Cc4ccc(C(F)(F)F)nc4)c4cccc(F)c34)CC2)ccn1 [Compound E-134, 4-[4-(4-fluoro-1-([6-(trifluoromethyl)pyridin-3-yl]methyl)-1H-indazol-3-yl)piperidine-1-carbonyl]pyridin-2-amine]",0.11
17,"Nc1cc(C(=O)N2CC(c3nn(Cc4noc(C5(C(F)(F)F)CCC5)n4)c4cccc(F)c34)C2)ccn1 [Compound E-146, 4-{3-[4-fluoro-1-({5-[1-(trifluoromethyl)cyclobutyl]-1,2,4-oxadiazol-3-yl}methyl)-1H-indazol-3-yl]azetidine-1-carbonyl}pyridin-2-amine hydrochloride]",0.0004
